In patent EP0491828B1, “PEPTIDES FROM GTPase-ACTIVATING PROTEIN (GAP), DIAGNOSTIC AND THERAPEUTIC USE THEREOF” (CHIRON CORPORATION, priority 1989, dated 1999):

What was measured:
[1] = test system: ras p21 protein; assay: Filter assay of GTP hydrolysis by ras p21 protein (32-P gamma-GTP), with and without GAP; assay type: biochemical; details: in the presence and absence of GAP; 30 minutes at room temperature
Procedure: The above four peptides, in the following two experiments, were tested for their abilities to inhibit the hydrolysis of GTP by ras p21 protein, in the presence and absence of GAP. The first experiment involved peptides G65, G73 and 891. It was carried out as follows: purified wild type ras p21 protein was incubated with 0.25 µM 32-P gamma-GTP in 100 mM NaPO4, pH 6.8, 0.5 mM DTT, 0.5 mM EDTA, 0.005% Na cholate, and 0.5 mg/ml BSA for 15 minutes at 30°C. The mixture was then diluted ten fold with TNM buffer (comprising 20 mM Tris-HCl, pH 7.0, 100 mM NaCl, 5 mM MgCl2). 20 µl (0.05 µg of p21) of this mixture was then combined with 2 µl of the peptide in 25 mM NaOAc, pH 5.5 and incubated for 5 minutes at room temperature. The GAP assay, was initiated by the addition of 12 ng GAP in 5 µl TNM buffer with 1 mg/ml BSA or 5 µl TNM BSA buffer for the GAP independent reactions, and the resulting mixture was incubated for 30 minutes at room temperature. The samples were then filtered through nitrocellulose membranes and washed three times with cold TNM. The filters were dried and their radioactivity counted. […] In the presence of GAP, the radioactive ras p21-GTP complex is hydrolyzed to GDP and ras p21 protein, thus reducing the resulting amount of radioactive p21-GTP bound to the filter and consequently, the radioactive counts detected. […]

[2] = test system: ras p21 protein; assay: GDP/GTP ratio assay of p21-GTP hydrolysis (alpha-32-P-GTP, PEI cellulose chromatography), with and without GAP; assay type: biochemical; details: in the presence of GAP; control peptide, no concentration stated
Procedure: Another experiment comparing the efficacy of cGAP 13 and peptide 891 in preventing the hydrolysis of GTP was carried out as follows. The assay measured the ratio of GDP formed resulting from the hydrolysis of GTP to the remaining GTP in the assay solution. Peptides 891, cGAP 13, and G65 were separately tested in the presence and absence of GAP, Peptide G65, which served as a control, and α-32-P-GTP were used.
The assay was carried out as follows. The p21-GTP was diluted at a ratio of 1 to 10 in an assay buffer consisting of TNM at pH 7.0, 1mM DTT, and 100 µM GTP. A mixture consisting of 20 λ of p21 at 0.25 µM, and 2 λ of the peptide (in TNM, 1mM DTT and 100 µM GTP) was prepared. To this mixture was added 5 λ, i.e. 12ng of GAP diluted in TNM and 1 mg/ml BSA; for experiments without GAP, 5λ TNM/BSA were added instead. The resulting mixture was incubated for 30 minutes at room temperature. The reaction was stopped and the nucleotides were eluted from ras p21 protein with 2% SDS, 40 mM EDTA at 65°C for 5 minutes. The nucleotides were chromatographed on PEI Cellulose in 1M LiCl. GTP and GDP spots were visualized with autoradiography and identified by means of standard solutions. The individual spots from the PEI cellulose plates were scraped and the radioactivity counted.

Substance | hydrolysis of GTP by ras p21 protein (radioactive counts per minute of ras p21-GTP complex on filter) [1] | hydrolysis of p21-GTP (ratio of radioactive counts of GDP over GTP) [2]
peptide G65: synthetic peptide corresponding to positions 876-890 of the full length GAP; served as a control (CLQKSVQHKWPTNTT; UniProt P20936 876-890, looked up, fragment) | do not affect the hydrolysis of GTP | exhibits no inhibitory effect on p21-GTP hydrolysis
peptide G73: synthetic peptide corresponding to positions 975-990 of the full length GAP (GNVPELPDTTEHSRTD; UniProt P20936 975-990, looked up, fragment) | do not affect the hydrolysis of GTP | 
